36 compounds from patent US10294243B2, “Bicyclic compounds as pesticides” (BAYER CROPSCIENCE AKTIENGESELLSCHAFT, priority 2014, dated 2019) can be followed below.

The test system of one data set is Myzus persicae. Kind of data set: Myzus persicae - spray test (Chinese cabbage leaf discs). It is filed as in vivo. The settings on record: application rate 500 g/ha, after 6 days; for pest or weed control at 500 g/ha: Myzus persicae, foliar, 144 h, read-out: efficacy (aphids killed). As to the method: Myzus persicae—Spray Test
Solvent: 78 parts by weight of acetone • • 1.5 parts by weight of dimethylformamide
Emulsifier: alkylaryl polyglycol ether
To produce further test concentrations, the preparation is diluted with emulsifier-containing water.
After 6 days, the efficacy in % is determined 100% means that all the aphids have been killed; 0% means that none of the aphids have been killed.

Data set [1] can be described thus: log P by HPLC on reversed-phase C18 columns (OECD Guideline 117); method [a] acidic pH 2.7, method [b] neutral pH 7.8. The settings on record: for chromatographic logP: reversed-phase C18 HPLC column. It is filed as physicochemical.
[2] abbreviates: HPLC reversed-phase C18, method [a] acidic pH 2.7.
The mark [3] stands for this setting: HPLC reversed-phase C18, method [b] neutral pH 7.8.
Setting [4] is: HPLC reversed-phase C18, method [a] acidic pH 2.7, read-out: logP[a].
The mark [5] stands for this setting: HPLC reversed-phase C18, method [b] neutral pH 7.8, read-out: logP[b].

SMILES strings stand for the structures. Like-named read-outs stand apart in the source and are kept apart here.

In the case of `CC[S+]([O-])c1ccccc1-n1cnc2nc(-c3cccnc3)sc2c1=O` (stereo not drawn) [Compound 67], the “efficacy (aphids killed)” value in the data set with Myzus persicae was determined as 90%. Moreover, the “logP[a]” value in data set [1] (setting [2]) is 1.28. Also, the “logP[b]” value in data set [1] (setting [3]) came to 1.29.

Regarding `CC(C)Cn1cnc2nc(-c3cccnc3)sc2c1=O` [Compound 3, 6-Isobutyl-2-(pyridin-3-yl)[1,3]thiazolo[4,5-d]pyrimidin-7(6H)-one], in the data set on Myzus persicae, the pest or weed control at 500 g/ha was found to be 100%. Besides, the chromatographic logP in data set [1] (setting [4]) was found to be 1.7.

For the compound `Cc1cc(C)c([S+]([O-])CC(F)(F)F)cc1-n1cnc2nc(-c3cncc(F)c3)sc2c1=O` (stereo not drawn) [Compound 72], the “efficacy (aphids killed)” value in the data set with Myzus persicae was determined as 90%. The “logP[a]” value in data set [1] (setting [2]) is 2.35. The “logP[b]” value in data set [1] (setting [3]) was found to be 2.29.

For the compound `CN(C)C(=O)CSc1cccc(-n2cnc3nc(-c4cccnc4)sc3c2=O)c1` [Compound 52], the “efficacy (aphids killed)” value in the data set with Myzus persicae is on record as 90%. Also, in data set [1] (setting [2]), the “logP[a]” value is recorded as 1.57. The “logP[b]” value in data set [1] (setting [3]) was determined as 1.55.

In the case of `O=c1c2sc(-c3cccnc3)nc2ncn1-c1cccc(OCC(F)(F)F)c1` [Compound 41], the “efficacy (aphids killed)” value with Myzus persicae turned out to be 90%. Besides, the “logP[a]” value in data set [1] (setting [2]) is 2.33. Besides, in data set [1] (setting [3]), the “logP[b]” value was 2.34.

Take `CC(C)n1cnc2nc(-c3cccnc3)sc2c1=O` [Compound 1, 6-Isopropyl-2-(pyridin-3-yl)[1,3]thiazolo[4,5-d]pyrimidin-7(6H)-one]: the pest or weed control at 500 g/ha with Myzus persicae is 100%. The values for the chromatographic logP in data set [1] (setting [4]) and in data set [1] (setting [5]) were 1.35 and 1.43, respectively.

Regarding `CN(C)C(=O)Cn1cnc2nc(-c3cccnc3)sc2c1=O` [Compound 7], the “efficacy (aphids killed)” value with Myzus persicae is recorded as 100%. Moreover, the “logP[a]” value in data set [1] (setting [2]) was 0.65.

Turning to `Cc1cccc(-n2cnc3nc(-c4cccnc4)sc3c2=O)c1` [Compound 8], the “efficacy (aphids killed)” value in the data set with Myzus persicae worked out at 90%. Moreover, in data set [1] (setting [2]), the “logP[a]” value is on record as 1.94. For the same compound, the “logP[b]” value in data set [1] (setting [3]) was found to be 1.94.

In the case of `Cc1nc(Cn2cnc3nc(-c4cccnc4)sc3c2=O)cs1` [Compound 38, 6-[(2-Methyl-1,3-thiazol-4-yl)methyl]-2-(pyridin-3-yl)[1,3]thiazolo[4,5-d]pyrimidin-7(6H)-one], the chromatographic logP in data set [1] (setting [4]) amounted to 1.36; in data set [1] (setting [5]), 1.42.

Take `CC(C)CSc1cccc(-n2cnc3nc(-c4cccnc4)sc3c2=O)c1` [Compound 26]: the “efficacy (aphids killed)” value in the data set on Myzus persicae stood at 90%. Also, the “logP[a]” value in data set [1] (setting [2]) was 3.18. For the same compound, in data set [1] (setting [3]), the “logP[b]” value was 3.08.

As for `O=c1c2sc(-c3cccnc3)nc2ncn1CC(F)(F)F` [Compound 5, 2-(Pyridin-3-yl)-6-(2,2,2-trifluoroethyl)[1,3]thiazolo[4,5-d]pyrimidin-7(6H)-one], the pest or weed control at 500 g/ha in the data set with Myzus persicae was found to be 100%. The chromatographic logP in data set [1] (setting [4]) is 1.54.

With `CC(C)C[S+]([O-])c1cccc(-n2cnc3nc(-c4cccnc4)sc3c2=O)c1` (stereo not drawn) [Compound 27], the “efficacy (aphids killed)” value in the data set on Myzus persicae stood at 90%. Moreover, the “logP[a]” value in data set [1] (setting [2]) came out at 1.73. Further, the “logP[b]” value in data set [1] (setting [3]) was determined as 1.68.

For the compound `CSc1cc(-n2cnc3nc(-c4cccnc4)sc3c2=O)ccc1C` [Compound 15], the “efficacy (aphids killed)” value in the data set on Myzus persicae was 100%. In addition, the “logP[a]” value in data set [1] (setting [2]) amounted to 2.42. The “logP[b]” value in data set [1] (setting [3]) is given as 2.35.

For the compound `CSc1cc(-n2cnc3nc(-c4cncc(F)c4)sc3c2=O)ccc1C` [Compound 70], in the data set with Myzus persicae, the “efficacy (aphids killed)” value amounted to 100%. Also, the “logP[a]” value in data set [1] (setting [2]) was 2.82. Besides, in data set [1] (setting [3]), the “logP[b]” value is 2.75.

Consider `CC(c1ncnn1C)n1cnc2nc(-c3cccnc3)sc2c1=O` (stereo not drawn) [Compound 86], for which the “efficacy (aphids killed)” value with Myzus persicae stood at 90%. Besides, the “logP[a]” value in data set [1] (setting [2]) turned out to be 1.01. The “logP[b]” value in data set [1] (setting [3]) was 1.07.

Regarding `Cc1cc(F)c(-n2cnc3nc(-c4ccc[n+]([O-])c4)sc3c2=O)cc1[S+]([O-])CC(F)(F)F` (stereo not drawn) [Compound 23, 6-{2-Fluoro-4-methyl-5-[(2,2,2-trifluoroethyl)sulphinyl]phenyl}-2-(1-oxidopyridin-3-yl)[1,3]thiazolo[4,5-d]pyrimidin-7(6H)-one], the pest or weed control at 500 g/ha in the data set on Myzus persicae was 100%. Further, the chromatographic logP in data set [1] (setting [4]) is 1.49; in data set [1] (setting [5]), 1.45.

As to `O=c1c2sc(-c3cccnc3)nc2ncn1-c1cc(SCC(F)(F)F)ccc1F` [Compound 46], the “efficacy (aphids killed)” value in the data set with Myzus persicae was determined as 90%. Moreover, in data set [1] (setting [2]), the “logP[a]” value turned out to be 2.60. Moreover, the “logP[b]” value in data set [1] (setting [3]) is 2.56.

Take `CC[S+]([O-])c1cccc(-n2cnc3nc(-c4cccnc4)sc3c2=O)c1` (stereo not drawn) [Compound 20]: the “efficacy (aphids killed)” value in the data set on Myzus persicae was determined as 100%. Moreover, the “logP[a]” value in data set [1] (setting [2]) worked out at 1.24. For the same compound, in data set [1] (setting [3]), the “logP[b]” value is 1.26.

As for `Cc1ccc(-n2cnc3nc(-c4cccnc4)sc3c2=O)cc1SCC(F)(F)F` [Compound 47], the “efficacy (aphids killed)” value in the data set on Myzus persicae stood at 90%. For the same compound, the “logP[a]” value in data set [1] (setting [2]) came out at 2.73. Further, in data set [1] (setting [3]), the “logP[b]” value came to 2.75.

With `O=c1c2sc(-c3cccnc3)nc2ncn1CC(F)(F)C(F)F` [Compound 6], in the data set with Myzus persicae, the “efficacy (aphids killed)” value was found to be 90%. Further, in data set [1] (setting [2]), the “logP[a]” value turned out to be 1.57.

In the case of `COc1ccc(-n2cnc3nc(-c4cccnc4)sc3c2=O)cc1` [Compound 12], the “efficacy (aphids killed)” value in the data set with Myzus persicae was determined as 90%. Moreover, the “logP[a]” value in data set [1] (setting [2]) is reported as 1.73. Moreover, in data set [1] (setting [3]), the “logP[b]” value is 1.76.

For the compound `Cc1cc(C)c(-n2cnc3nc(-c4cncc(F)c4)sc3c2=O)cc1SCC(F)(F)F` [Compound 71], the “efficacy (aphids killed)” value in the data set with Myzus persicae was 90%. Moreover, the “logP[a]” value in data set [1] (setting [2]) amounted to 3.64. The “logP[b]” value in data set [1] (setting [3]) is on record as 3.34.

`Cc1cc(F)c(-n2cnc3nc(-c4cncc(F)c4)sc3c2=O)cc1SCC(F)(F)F` [Compound 73, 6-{2-Fluoro-4-methyl-5-[(2,2,2-trifluoroethyl)sulphanyl]phenyl}-2-(5-fluoropyridin-3-yl)[1,3]thiazolo[4,5-d]pyrimidin-7(6H)-one]: the pest or weed control at 500 g/ha in the data set with Myzus persicae turned out to be 90%. Moreover, the chromatographic logP is 3.36 in data set [1] (setting [4]) and 3.25 in data set [1] (setting [5]).

With `Cc1ccc(-n2cnc3nc(-c4cccnc4)sc3c2=O)cc1[S+]([O-])CC(F)(F)F` (stereo not drawn) [Compound 48], the “efficacy (aphids killed)” value with Myzus persicae amounted to 100%. Further, the “logP[a]” value in data set [1] (setting [2]) is 1.86. Moreover, the “logP[b]” value in data set [1] (setting [3]) came to 1.85.

On to `CC(C)[S+]([O-])c1cccc(-n2cnc3nc(-c4cccnc4)sc3c2=O)c1` (stereo not drawn) [Compound 25], for which the “efficacy (aphids killed)” value in the data set on Myzus persicae came out at 90%. In data set [1] (setting [2]), the “logP[a]” value is listed as 1.39. Moreover, the “logP[b]” value in data set [1] (setting [3]) was 1.43.

In the case of `Cc1cc(F)c(-n2c(C)nc3nc(-c4cccnc4)sc3c2=O)cc1SCC(F)(F)F` [Compound 56, 6-{2-Fluoro-4-methyl-5-[(2,2,2-trifluoroethyl)sulphanyl]phenyl}-5-methyl-2-(pyridin-3-yl)[1,3]thiazolo[4,5-d]pyrimidin-7(6H)-one], the pest or weed control at 500 g/ha in the data set on Myzus persicae worked out at 90%. Moreover, the chromatographic logP in data set [1] (setting [4]) turned out to be 3.25; in data set [1] (setting [5]), 3.

In the case of `Cc1cc(F)c(-n2cnc3nc(-c4cccnc4)sc3c2=O)cc1[S+]([O-])CC(F)(F)F` (stereo not drawn) [Compound 22, 6-{2-Fluoro-4-methyl-5-[(2,2,2-trifluoroethyl)sulphinyl]phenyl}-2-(pyridin-3-yl)[1,3]thiazolo[4,5-d]pyrimidin-7(6H)-one], the pest or weed control at 500 g/ha in the data set on Myzus persicae worked out at 90%. For the same compound, the chromatographic logP in data set [1] (setting [4]) amounted to 2.01; in data set [1] (setting [5]) it was 1.98.

For the compound `Cc1cc(F)c(-n2cnc3nc(-c4cncnc4)sc3c2=O)cc1SCC(F)(F)F` [Compound 78], in the data set with Myzus persicae, the “efficacy (aphids killed)” value stood at 90%. Moreover, in data set [1] (setting [2]), the “logP[a]” value worked out at 2.73. Besides, the “logP[b]” value in data set [1] (setting [3]) is 2.65.

With `Cc1cc(C)c([S+]([O-])CC(F)(F)F)cc1-n1cnc2nc(-c3cncnc3)sc2c1=O` (stereo not drawn) [Compound 77, 6-{2,4-Dimethyl-5-[(2,2,2-trifluoroethyl)sulphinyl]phenyl}-2-(pyrimidin-5-yl)[1,3]thiazolo[4,5-d]pyrimidin-7(6H)-one], the pest or weed control at 500 g/ha in the data set on Myzus persicae was 100%. Further, the figures for the chromatographic logP in data set [1] (setting [4]) and in data set [1] (setting [5]) were 1.84 and 1.82, respectively.

For the compound `O=c1c2sc(-c3cccnc3)nc2ncn1-c1ccccc1SCC(F)(F)F` [Compound 68, 2-(Pyridin-3-yl)-6-{2-[(2,2,2-trifluoroethyl)sulphanyl]phenyl}[1,3]thiazolo[4,5-d]pyrimidin-7(6H)-one], the values for the chromatographic logP in data set [1] (setting [4]) and in data set [1] (setting [5]) were 2.34 and 2.29, respectively.

On to `COc1cccc(Cn2cnc3nc(-c4cccnc4)sc3c2=O)c1` [Compound 32], for which the “logP[a]” value in data set [1] (setting [2]) was 1.91. The “logP[b]” value in data set [1] (setting [3]) came out at 1.92.

Consider `CN(C)C(=O)c1cc2cc(-n3cnc4nc(-c5cccnc5)sc4c3=O)ccc2s1` [Compound 65], for which the “logP[a]” value in data set [1] (setting [2]) is 1.70. For the same compound, in data set [1] (setting [3]), the “logP[b]” value is given as 1.70.

Consider `Cc1ccc(-n2cnc3nc(-c4cncnc4)sc3c2=O)cc1` [Compound 75], for which the “logP[a]” value in data set [1] (setting [2]) is 1.80. Further, the “logP[b]” value in data set [1] (setting [3]) turned out to be 1.72.

`O=c1c2sc(-c3cccnc3)nc2ncn1Cc1cccc(C(F)(F)F)c1` [Compound 28, 2-(Pyridin-3-yl)-6-[3-(trifluoromethyl)benzyl][1,3]thiazolo[4,5-d]pyrimidin-7(6H)-one]: the chromatographic logP in data set [1] (setting [4]) was determined as 2.47; in data set [1] (setting [5]), 2.43.

On to `CN(C)S(=O)(=O)c1cccc(-n2cnc3nc(-c4cccnc4)sc3c2=O)c1` [Compound 42, N,N-Dimethyl-3-[7-oxo-2-(pyridin-3-yl)[1,3]thiazolo[4,5-d]pyrimidin-6(7H)-yl]benzenesulphonamide], for which the chromatographic logP stood at 1.63 in data set [1] (setting [4]) and 1.72 in data set [1] (setting [5]).

For `O=c1c2sc(-c3cccnc3)nc2ncn1-c1ccccc1[S+]([O-])CC(F)(F)F` (stereo not drawn) [Compound 69, 2-(Pyridin-3-yl)-6-{2-[(2,2,2-trifluoroethyl)sulphinyl]phenyl}[1,3]thiazolo[4,5-d]pyrimidin-7(6H)-one], the chromatographic logP is 1.74 in data set [1] (setting [4]) and 1.75 in data set [1] (setting [5]).
